Earlier results, collected in the PKSmart pharmacokinetics tables (Seal et al. 2025).

Experiments:
[1] = Lombardo et al. 2013, J Clin Pharmacol 53:178, doi 10.1177/0091270012440282; conditions: for Vd / clearance: in vivo, iv; for fraction unbound: plasma
[2] = Lombardo, Berellini, Obach 2018, Drug Metab Dispos 46:1466, doi 10.1124/dmd.118.082966; conditions: human; for MRT / Vd / half-life / clearance: in vivo, iv; for fraction unbound: plasma

Row | Compound | Vd ([1]; dog) [L/kg] | Vd ([1]; rat) [L/kg] | fraction unbound ([1]; rat) | MRT [2] [h] | Vd [2] [L/kg] | half-life [2] [min] | fraction unbound ([1]; dog) | Vd ([1]; monkey) [L/kg] | clearance ([1]; monkey) [mL/min/kg] | fraction unbound ([1]; monkey) | clearance ([1]; rat) [mL/min/kg] | clearance [2] [mL/min/kg] | fraction unbound [2] | clearance ([1]; dog) [mL/min/kg]
1 | CN/C(=C\[N+](=O)[O-])NCCSCc1ccc(CN(C)C)o1 | 1.65 | 2.87 | 1 | 2.1 | 1.2 | 126 | – | – | – | – | – | – | – | –
2 | Nc1ccc(S(=O)(=O)Nc2ncccn2)cc1 | – | 0.34 | 0.86 | 8.8 | 0.29 | 420 | 0.78 | 0.5 | 0.64 | 0.463 | 1.1 | 0.55 | – | –
3 | CC(C)(C)NCC(O)c1cc(O)cc(O)c1 (configuration not stated) | – | 3.3 | – | 7.4 | 1.5 | 900 | – | – | – | – | 60 | 3.4 | – | –
4 | CN(c1nc2ccccc2s1)C1CCN(C[C@H](O)COc2ccc(F)c(F)c2)CC1 | – | – | 0.008 | – | – | – | – | – | – | – | – | – | 0.003 | –
5 | C[C@@H](O)C1C(=O)N2C(C(=O)[O-])=C(SC3Cn4cnc[n+]4C3)[C@H](C)[C@H]12 (some centres not stated) | 0.21 | 0.19 | 0.96 | 1.3 | 0.2 | 66 | 0.94 | 0.25 | 5.5 | – | 13 | 2.5 | 0.92 | 4.7
6 | CC(C)(C)NC(=O)C1CC[C@H]2[C@@H]3CC[C@H]4NC(=O)C=C[C@]4(C)[C@H]3CC[C@]12C (some centres not stated) | – | – | – | 7.6 | 1.1 | 360 | 0.18 | – | – | – | – | – | – | –
7 | O=C1c2c(O)ccc(O)c2C(=O)c2c(NCCNCCO)ccc(NCCNCCO)c21 | 26.6 | – | – | 25 | 12 | 3180 | – | – | – | – | – | 7.9 | 0.25 | 10
8 | O=C(O)P(=O)(O)O | 0.65 | – | – | – | 0.5 | 282 | – | – | – | – | – | 2.1 | – | 3.62
9 | CNCC[C@@H](Oc1ccccc1C)c1ccccc1 | – | 4.3 | 0.11 | 1.5 | 0.85 | 312 | – | – | – | – | 36 | 9.3 | – | –
10 | CCCC[C@@H]1CC(=O)[C@]2(O)O[C@@H]3[C@@H](NC)[C@@H](O)[C@@H](NC)[C@H](O)[C@H]3O[C@@H]2O1 | 49.8 | 4.46 | 0.62 | 6.9 | 0.7 | 660 | 0.533 | – | – | – | 4.28 | 1.7 | 0.65 | 2.69
11 | COc1nc(C)nc(Cl)c1NC1=NCCN1 | – | 3.2 | – | 2.7 | 1.8 | 132 | – | – | – | – | 50.1 | 11 | – | –
12 | CN1C(=O)NC(=O)C(C)(C2=CCCCC2)C1=O (configuration not stated) | – | 2.5 | – | 5.4 | 1.1 | 294 | – | – | – | – | 40.6 | 3.4 | 0.53 | –
13 | COc1cccc2c1C(=O)c1c(O)c3c(c(O)c1C2=O)C[C@@](O)(C(=O)CO)C[C@@H]3O[C@H]1C[C@H](N)[C@@H](O)[C@H](C)O1 | 71.9 | 0.17 | – | 38 | 45 | 2160 | 0.808 | – | – | – | 25.9 | 20 | – | –
14 | COCc1c(-c2ccc(F)cc2)c(=CC[C@@H](O)C[C@@H](O)CC(=O)O)c(C(C)C)nc1=C(C)C | – | 3 | – | 1.8 | 0.33 | 108 | – | – | – | – | 27 | 2.9 | – | –
15 | Cc1cn([C@H]2C=C[C@@H](CO)O2)c(=O)[nH]c1=O | – | 1.09 | 0.9 | 1.4 | 0.67 | 84 | 0.9 | 0.8 | 9.4 | 0.9 | 20.2 | 8.2 | 1 | –
16 | Nc1ccn(C[C@@H](CO)OCP(=O)(O)O)c(=O)n1 | – | 2 | 1 | 3.3 | 0.49 | 156 | – | 0.8 | 3.5 | – | 0.7 | 2.5 | – | –
17 | Oc1ccc2c3c1O[C@H]1[C@@H](O)CC[C@@]4(O)[C@@H](C2)N(CC2CCC2)CC[C@]314 | – | 11 | – | 3.5 | 4.6 | 222 | – | – | – | – | 111 | 22 | – | –
18 | Nc1ccn([C@H]2CC[C@@H](CO)O2)c(=O)n1 | – | 1 | 0.85 | – | – | – | – | 0.98 | 10.3 | – | 11.2 | – | 0.96 | –
19 | Cc1ccc(-c2nc3ccc(C)cn3c2CC(=O)N(C)C)cc1 | – | 1.05 | 0.17 | 2.1 | 0.54 | 102 | – | – | – | – | 48.7 | 4.3 | – | –

Row | Compound | Vd ([1]; dog) [L/kg] | Vd ([1]; rat) [L/kg] | fraction unbound ([1]; rat) | MRT [2] [h] | Vd [2] [L/kg] | half-life [2] [min] | fraction unbound ([1]; dog) | Vd ([1]; monkey) [L/kg] | clearance ([1]; monkey) [mL/min/kg] | fraction unbound ([1]; monkey) | clearance ([1]; rat) [mL/min/kg] | clearance [2] [mL/min/kg] | fraction unbound [2] | clearance ([1]; dog) [mL/min/kg]
20 | CCN1CCN(C(=O)NC(C(=O)NC2C(=O)N3C(C(=O)O)C(C)(C)S[C@H]23)c2ccccc2)C(=O)C1=O (some centres not stated) | 0.24 | 0.39 | 0.61 | 1.1 | 0.27 | 57.6 | 0.84 | 0.26 | 7.2 | 0.95 | 17.7 | – | – | 6.6
21 | NCCC(O)C(=O)N[C@@H]1C[C@H](N)[C@@H](O[C@H]2O[C@H](CN)[C@@H](O)[C@H](O)[C@H]2O)[C@H](O)[C@H]1O[C@H]1O[C@H](CO)[C@@H](O)[C@H](N)[C@H]1O (some centres not stated) | 0.2 | 0.16 | – | 2.4 | 0.16 | 144 | – | – | – | – | 5.4 | 1.1 | 0.88 | 3.5
22 | CON=C(C(=O)NC1C(=O)N2C(C(=O)O)=C(CSc3nc(C)c(CC(=O)O)s3)CS[C@H]12)c1csc(N)n1 (some centres not stated) | 0.26 | 0.18 | 0.0097 | 1.5 | 0.054 | 252 | 0.243 | 0.15 | 1.2 | 1 | 1.1 | 0.61 | 0.18 | 4.1
23 | Cc1cccc(Nc2ccncc2S(=O)(=O)NC(=O)NC(C)C)c1 | 0.08 | 0.23 | 0.06 | 6.6 | 0.21 | 306 | 0.02 | – | – | – | 3.74 | 0.53 | – | 0.14
24 | Cn1c(=O)c2c(ncn2CC(O)CO)n(C)c1=O (configuration not stated) | – | 1.04 | – | 1.5 | 0.42 | 102 | – | – | – | – | 24.7 | 4.8 | – | –
25 | O=C(O)Cc1ccccc1Nc1c(Cl)cccc1Cl | 0.19 | 1.39 | – | 1 | 0.22 | 84 | – | 0.32 | 8.5 | – | 16.8 | 3.5 | – | 1.4
26 | C#C[C@]1(O)CC[C@H]2[C@@H]3CCc4cc(O)ccc4[C@H]3CC[C@@]21C | 17 | 5.7 | 0.0088 | 11 | 4.3 | 582 | – | 7.2 | 36 | 0.0099 | 55 | 7 | 0.014 | 25
27 | CN1CCc2cccc3c2[C@H]1Cc1ccc(O)c(O)c1-3 | – | – | 0.1 | 0.67 | 1.6 | – | – | – | – | – | – | 40 | 0.05 | –
28 | CO[C@]12CC[C@@]3(C[C@@H]1[C@](C)(O)C(C)(C)C)[C@H]1Cc4ccc(O)c5c4[C@@]3(CCN1CC1CC1)[C@H]2O5 | – | 8.37 | – | – | – | 192 | – | – | – | – | 0.05 | – | – | –
29 | CON=C(C(=O)NC1C(=O)N2C(C(=O)O)=C(CSc3nnnn3C)CS[C@H]12)c1csc(N)n1 (some centres not stated) | 0.3 | 0.28 | – | 0.77 | 0.2 | 53.4 | – | – | – | – | 7.46 | 3.65 | 0.31 | 8.91
30 | COC(=O)C1[C@@H](OC(=O)c2ccccc2)C[C@@H]2CC[C@H]1N2C (some centres not stated) | 2.6 | 16.4 | 0.78 | 1 | 2 | 45.6 | 0.76 | – | – | – | 253 | 32 | 0.12 | 48.7
31 | C=CC1=C(C(=O)O)N2C(=O)C(=NC(=O)C(NOCC(=O)O)c3csc(N)n3)[C@H]2SC1 (some centres not stated) | 0.24 | 0.4 | 0.4 | – | 0.24 | 192 | 0.07 | – | – | – | 6 | 1 | – | 0.4
32 | C[C@]12C=CC(=O)C=C1CC[C@@H]1[C@@H]2[C@@H](O)C[C@@]2(C)[C@H]1CC[C@]2(O)C(=O)CO | – | 1.74 | 0.32 | – | – | – | – | – | – | – | 98.7 | – | 0.25 | –
33 | COc1ccc(Cl)cc1[C@]1(F)C(=O)Nc2cc(C(F)(F)F)ccc21 | 4.06 | 6.3 | – | 11 | 10 | 2220 | 0.0067 | – | – | – | 43 | 15 | 0.0038 | 3.5
34 | CCC1(c2cccc(O)c2)CCCCN(C)C1 (configuration not stated) | – | 4.4 | – | 2 | 3.3 | 102 | – | – | – | – | 58.4 | 28 | 0.73 | –
35 | COc1cccc2c1C(=O)c1c(O)c3c(c(O)c1C2=O)C[C@@](O)(C(=O)CO)C[C@@H]3O[C@H]1C[C@H](N)[C@H](O)[C@H](C)O1 | 31.6 | 5.5 | – | 24 | 22 | 1920 | – | – | – | – | 32.4 | 15 | – | 7.93
36 | NC[C@H]1O[C@H](O[C@H]2[C@H](O)[C@@H](O[C@H]3O[C@H](CO)[C@@H](O)[C@H](N)[C@H]3O)[C@H](N)C[C@@H]2N)[C@H](N)C[C@@H]1O | – | 0.68 | – | 2.4 | 0.23 | 120 | – | – | – | – | 15.7 | 1.6 | 1 | –
37 | CC(=O)CCCCn1c(=O)c2c(ncn2C)n(C)c1=O | 1.01 | 0.1 | 0.76 | 0.77 | 1.8 | 72 | 0.425 | – | – | – | 7.28 | 39 | 0.51 | 37
